Laboratory results from patent US9868728B2, “Quinazoline derivatives, compositions, and uses related thereto” (Emory University, priority 2010, dated 2018).

Legend:
human neutrophils = assay: ROS production in human neutrophils; format: cell-based; settings: Neutrophil, which express the Nox2 system, read-out: IC50 of inhibition of ROS production
Text: The Nox2 inhibition activity of two compounds is shown in FIG. 1, along with data from the two assay controls.

NOX2 = target: T1, NOX2 (Homo sapiens, UniProt P04839); assay: Nox2 cell-free assay (LO12 luminescence); format: biochemical; settings: Nox2 cell-free system; for IC50: read-out: NOX2 IC50 (concentration giving half-maximal inhibition); for Emax: value in parentheses, read-out: % inhibition (maximum inhibition achieved at a very high concentration of the compound)
T1 construct: isolated plasma membranes from human neutrophils as a source for Nox2-p22phox; from tissue; host or cells: Plasma membranes of human neutrophils (Nox2-p22phox); cytosolic factors recombinant from E. coli
T1 sequence (P04839 2-570 limits assumed): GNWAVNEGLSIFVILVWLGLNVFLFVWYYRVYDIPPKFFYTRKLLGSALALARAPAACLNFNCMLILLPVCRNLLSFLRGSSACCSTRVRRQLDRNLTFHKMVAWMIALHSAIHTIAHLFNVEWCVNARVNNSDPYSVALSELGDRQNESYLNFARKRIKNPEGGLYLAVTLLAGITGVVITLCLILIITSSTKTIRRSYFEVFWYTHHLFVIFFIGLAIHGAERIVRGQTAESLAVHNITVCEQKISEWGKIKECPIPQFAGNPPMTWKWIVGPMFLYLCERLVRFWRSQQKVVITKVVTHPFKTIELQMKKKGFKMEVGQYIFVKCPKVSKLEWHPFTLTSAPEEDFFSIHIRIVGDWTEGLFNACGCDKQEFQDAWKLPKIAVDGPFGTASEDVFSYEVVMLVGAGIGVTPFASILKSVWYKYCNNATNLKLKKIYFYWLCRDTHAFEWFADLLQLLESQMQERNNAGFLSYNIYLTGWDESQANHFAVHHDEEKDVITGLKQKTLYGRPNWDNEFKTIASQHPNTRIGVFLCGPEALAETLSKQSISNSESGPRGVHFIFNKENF
T1 sequence (P13498 2-195 partner limits assumed): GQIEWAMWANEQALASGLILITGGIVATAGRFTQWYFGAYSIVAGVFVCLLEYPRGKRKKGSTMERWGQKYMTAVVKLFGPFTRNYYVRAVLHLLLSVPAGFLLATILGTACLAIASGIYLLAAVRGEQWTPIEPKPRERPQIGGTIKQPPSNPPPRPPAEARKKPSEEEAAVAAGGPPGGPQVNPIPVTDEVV
Experimental: The following compounds were tested according to the procedures provided in the experimental section. Assays were carried out using the Nox2 cell-free system. The IC50 value is the concentration giving half-maximal inhibition, while the “% inhibition” shown in parentheses is the maximum inhibition achieved at a very high concentration of the compound. 100% refers to complete inhibition within experimental error of the assay.
In certain assays a Cell-Free recombinant NOX-2 system (consisting of isolated plasma membranes from human neutrophils as a source for Nox2-p22phox, supplemented with recombinant p47phox, p67phox and Rac1Q61L (activated Rac), expressed in and isolated from of E. coli. LO12 luminescence was used as a readout to monitor enzymatic activity.
Plasma membranes were prepared from human neutrophils, which express large amounts of Nox2 and stored at −80 C until use. Membranes are mixed with recombinant, purified cytosolic regulatory proteins (p67Np47 chimera, and constitutively active Rac1 mutant Q61) and FAD, along with varying concentrations of compound, and LO12, which luminesces when it reacts with ROSvi. The reaction is started by addition of NADPH and SDS (an artificial stimulus for Nox2). See Curnutte et al., (1987) J. Biol. Chem. 262: 6450-6452.

Nox4 DH = target: T2, Nox4 DH (Homo sapiens, UniProt Q9NPH5); assay: Nox4 DH inhibition kinetics with NADPH; format: biochemical; settings: versus substrate NADPH; major effect on apparent Km, minor effect on Vmax
T2 sequence (Q9NPH5 304-578 limits assumed): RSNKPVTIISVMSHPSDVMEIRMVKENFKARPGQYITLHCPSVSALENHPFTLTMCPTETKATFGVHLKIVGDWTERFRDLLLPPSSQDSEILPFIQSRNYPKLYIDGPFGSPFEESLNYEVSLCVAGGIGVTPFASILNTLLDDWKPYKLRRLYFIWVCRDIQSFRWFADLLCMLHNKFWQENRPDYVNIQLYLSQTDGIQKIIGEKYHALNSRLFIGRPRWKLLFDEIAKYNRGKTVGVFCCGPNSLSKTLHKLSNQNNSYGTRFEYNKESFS

Row | Compound | IC50 (NOX2) [nM] | further results
1 | CN(C)CCCn1c(=S)[nH]c2ccc(Cl)cc2c1=O.Cl [TG6-44] | 1000 | IC50 (human neutrophils): 2000 nM; mode of inhibition of Nox4 DH (Nox4 DH): competitive inhibitor; Emax (NOX2): 100%
2 | CCSC1Nc2ccccc2C(=O)N1CCC[N+]1(CC)CCOCC1 (stereo not shown) [TG6-99-2] | 1500 | Emax (NOX2): 99%
3 | N#CCCCCSc1nc2ccccc2c(=O)n1CCN1CCCCC1 [TG6-101] |  | NOX2 IC50 (concentration giving half-maximal inhibition) (NOX2): Not active
4 | O=C(c1ccc(F)cc1)N1CCN(CCn2c(=S)[nH]c3ccc(Cl)cc3c2=O)CC1 [TG6-173] | 2000 | 
5 | CN(C)CCCn1c(=S)[nH]c2ccc(F)cc2c1=O [TG6-248] | 600 | 
6 | CN(C)CCCn1c(=S)[nH]c2cc(F)c(F)cc2c1=O [TG6-250] | 400 | 
7 | CCn1c(=S)[nH]c2ccc(F)cc2c1=O [TG6-269-1] | 700 | 
8 | CC(C)n1c(=S)[nH]c2cc3c(cc2c1=O)OCCO3 [TG6-272] | 700 | 
9 | CCCn1c(=S)[nH]c2ccc(Cl)cc2c1=O [TG6-280] | 8000 | 
10 | CC(C)n1c(=S)[nH]c2cc(F)c(F)cc2c1=O [TG6-284-2] | 700 | 
11 | CN(C)c1cccc(-n2c(=S)[nH]c3ccc(Cl)cc3c2=O)c1 [TG6-285] | 1300 | 
12 | CN(C)CCCn1c(=S)[nH]c2cc3c(cc2c1=O)OCCO3 [TG6-290-1] | 800 | 
13 | COc1cc2[nH]c(=S)n(C#N)c(=O)c2cc1OC [TG6-295-2] | 200 | 
14 | COc1ccc(N(C)CCCn2c(=S)[nH]c3ccc(Cl)cc3c2=O)cc1 [TG7-25] | 200 | 
15 | COc1ccc(N2CCN(CCn3c(=S)[nH]c4cc(OC)c(OC)cc4c3=O)CC2)cc1 [TG7-29] | 700 | 

Second part, led by results:

Row | IC50 (NOX2) [nM] | Compound | further results
16 | 2000 | CN(C)CCCCn1c(SCC(=O)Nc2nc(-c3ccc(Br)cc3)cs2)nc2ccccc2c1=O [AS158b] | IC50 (human neutrophils): 1500 nM; Emax (NOX2): 100%
17 | 1500 | CSc1nc2ccccc2c(=O)n1CCC[N+]1(C)CCOCC1 [TG6-103-1] | Emax (NOX2): 100%
18 | 1000 | CSc1nc2ccc(F)cc2c(=O)n1CCC[N+](C)(C)C [TG6-103-2] | Emax (NOX2): 100%
19 | 2000 | O=c1c2cc(Cl)ccc2[nH]c(=S)n1CCN1CCNCC1 [TG6-170] | 
20 | 1100 | O=c1c2cc(Cl)ccc2[nH]c(=S)n1CCCN1CCCCC1 [TG6-172] | 
21 | 600 | O=c1c2cc(Cl)ccc2[nH]c(=S)n1CCCN1CCCCC1 [TG6-243] | 
22 | 1000 | O=c1c2ccccc2[nH]c(=S)n1CCCN1CCOCC1 [TG6-249] | 
23 | 300 | COc1ccc(N2CCN(CCn3c(=S)[nH]c4ccc(Cl)cc4c3=O)CC2)cc1 [TG7-20] | 
